Source: paper PMC10454409, “Hybrids of Sterically Hindered Phenols and Diaryl Ureas: Synthesis, Switch from Antioxidant Activity to ROS Generation and Induction of Apoptosis” (International Journal of Molecular Sciences, 2023)

Columns and labels:
[1] = system: M-HeLa cells (human cervix epithelioid carcinoma); assay: MTT cytotoxicity test, M-HeLa; format: cell-based
How it was run: (§1)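 Cells seeded at 5 × 10^3 per well and grown at 37 °C to monolayer, then exposed to compounds for 48 h. Viability by MTT (0.5 mg/mL, serum-free medium, 4 h, 37 °C), formazan dissolved in DMSO, OD 540 nm. IC50 estimated from triplicate experiments.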

[2] = system: HuTu 80 cells; assay: Intracellular ROS level, CellROX Deep Red flow cytometry; format: cell-based, human; settings: 48 h incubation, maximum concentration (IC50)
[3] = system: isolated rat liver mitochondria; assay: Membrane potential of isolated mitochondria (Safranin A); format: biochemical; settings: for Depolarization of mitochondrial membrane: isolated mitochondria
Description: The membrane potential of rat […] mitochondria was measured with a Victor 3 plate analyzer (Perkin Elmer, Hamburg, Germany) using the potential-dependent indicator Safranin A [57]. The mitochondrial preparation was diluted in a buffer containing mannitol (225 mM) (Dia-M, Moscow, Russia), sucrose (75 mM) (Sigma Aldrich, Saint Louis, MO, USA), HEPES (10 mM) (Gibco, Scotland, UK), EGTA (20 µM) (Dia-M, Moscow, Russia) and KH2PO4 (1 mM) at pH = 7.4 at a ratio of 0.5 mg of protein to 1 mL of medium. Safranin A (5 µM) was added to the suspension immediately before the start of the measurement. The organelles were then energized by potassium succinate (5 mM) in the presence of rotenone (1 µM). Mitochondrial pore opening was induced by the addition of CaCl2 (25 µM).
Figure 8 Effect of the synthesized compounds on the membrane potential of rat liver mitochondria. (a) Kinetic lines of transmembrane potential changes at λex = 458 nm and λem = 590 nm. The concentration of the test substances was 100 µM. (b) Calculated parameters of % depolarization relative to control samples. Statistical significance was assessed using one-way ANOVA and Dunnett’s multiple comparison tests, where **** p < 0.0001 vs. control. (c) Concentration dependence of the effects of 11b and 17b on mitochondrial membrane potential. The concentration of the test substances was from 20 to 200 µM. Concentration of ions; Ca^2+—25 µM. Mitochondria were energized by potassium succinate and rotenone. Data are presented as mean±error of the mean (n = 3).

[4] = system: SH-SY5Y neuroblastoma cells; assay: Glycolysis stress test (Seahorse XF96e, ECAR); format: cell-based; settings: compound 100 µM
Description: We studied the ability of compounds to inhibit aerobic glycolysis using the Agilent Seahorse XF96e Analyzer (Seahorse Bioscience, North Billerica, MA, USA) assay of cellular metabolism on the level of proton production in samples examined on the SH-SY5Y neuroblastoma cell line using glycolysis stress tests. The extracellular acidification rate of the medium was measured in real time, which allowed us to assess the intensity of glycolysis in the cells by recording the main parameters of glycolytic function: basal glycolysis, glycolytic capacity and glycolytic reserve. Glycolytic capacity describes the maximum amount of glycolysis/glucose breakdown the cells can perform acutely, whereas glycolytic reserve is defined as the difference between the basal and maximal glycolytic capacity.
The ability of synthesized compounds to modulate […] glycolysis was studied using the Agilent Seahorse XF96e Analyzer (Seahorse Bioscience, Billerica, MA, USA) on the neuroblastoma SH-SY5Y cell line (40,000 cells per well) as described earlier.
Glycolysis was measured by subtracting the maximum rate of extracellular acidification of the medium before glucose injection from the maximum rate before oligomycin injection. Glycolytic capacity was measured by subtracting the maximum velocity value before glucose injection from the maximum velocity value after oligomycin injection. Glycolytic reserve was defined as the difference between glycolytic capacity and glycolysis.
Figure 6 Effect of synthesized compounds on the glycolytic profile of (a–c) SH-SY5Y tumor cells and (d) calculated parameters of glycolytic function. […] The concentration of compounds was 100 µM, glucose—10 mM, oligomycin—1 µM и 2-fluoro-2-deoxy-D-glucose—25 mM. Data are presented as mean±error of the mean (n = 3). Statistical significance was assessed using one-way ANOVA and Dunnett’s multiple comparison tests, where **** p < 0.0001, *** p < 0.001, ** p < 0.01 and * p < 0.05 vs. control.

[5] = system: Chang liver cells (human liver cells, normal cell line); assay: MTT cytotoxicity test, Chang liver normal cells; format: cell-based; settings: 48 h incubation
Description: For the experiments, we used tumor cell cultures M-HeLa clone 11 (epithelioid carcinoma of the cervix, subline HeLa., clone M-HeLa), HuTu 80 (human duodenal adenocarcinoma) and MCF7 (human breast adenocarcinoma (pleural fluid)) from the collection of the Institute of Cytology, Russian Academy of Sciences (St. Petersburg); human liver cells (Chang liver) from the collection of the Research Institute of Virology at the Russian Academy of Medical Sciences (Moscow); and SH-SY5Y (neuroblastoma)from the Laboratory of Tumor Cell Genetics at the Scientific Research Institute of Carcinogenesis N.N. Blokhin National Medical Research Center of Oncology.
The cytotoxic effect on cells was determined using the colorimetric method of cell proliferation—the MTT test. NADP-H-dependent cellular oxidoreductase enzymes can, under certain conditions, reflect the number of viable cells. These enzymes are able to reduce the tetrazolium dye (MTT)-3-(4,5-dimethylthiazol-2-yl)-2,5-diphenyl-tetrazolium bromide to insoluble blue-violet formazan, which crystallizes inside the cell. The amount of formazan formed is proportional to the number of cells with active metabolism.
Cells were seeded on a 96-well Nunc plate at a concentration of 5 × 10^3 cells per well in a volume of 100 μL of medium and cultured in a CO2 incubator at 37 °C until a monolayer was formed. […] After 48 h, the nutrient medium was removed from the plates and 100 µL of the nutrient medium without serum with MTT at a concentration of 0.5 mg/mL was added and incubated for 4 h at 37 °C. Formazan crystals were […] 100 µL of DMSO in each well. Optical density was recorded at 540 nm on an in vitro logic microplate reader (Russia). The experiments for all compounds were repeated in triplicate.
IC50 values were estimated using the Quest Graph IC50 Calculator (AAT Bioquest, Inc., Sunnyvale, CA, USA) (Version 2022) (accessed on 25 June 2022).

[6] = system: SH-SY5Y cells (neuroblastoma); assay: MTT cytotoxicity test, SH-SY5Y; format: cell-based; settings: Homo sapiens, SH-SY5Y; MTT test; 24 h incubation per text, 48 h per method
How it was run: as §1

## CCOP(=O)(OCC)C(c1cc(C(C)(C)C)c(O)c(C(C)(C)C)c1)c1ccc(NC(=O)Nc2ccc([N+](=O)[O-])cc2)cc1NC(=O)Nc1ccc([N+](=O)[O-])cc1 (centres unmarked) [17b]
[1]; Homo sapiens, M-HeLa, MTT test, 24 h incubation per text, 48 h per method
  IC50: 24.3 ± 1.9 µM
[1]; M-HeLa vs Chang liver
  SI, selectivity index relative to Chang liver, M-HeLa: ~3
[2]
  Intracellular ROS level: 400.2 ± 5.2%
[3]; compound 100 μM
  Depolarization of mitochondrial membrane: 50%
[3]; compound 200 μM
  Depolarization of mitochondrial membrane: ~100%
[3]; isolated rat liver mitochondria, compound 100 µM
  Depolarization relative to control (class in Figure 8b): High Depolarization
[4]
  Glycolytic reserve: ability to decrease glycolytic reserves
[4]; glucose 10 mM
  Glycolysis: rate of extracellular acidification after saturating glucose: decrease in the rate of extracellular acidification
[4]; oligomycin 1 µM
  Glycolytic capacity: decrease in glycolytic capacity
[5]
  IC50: 74 ± 5.9 µM
[6]
  IC50: 54.8 ± 2.1 µM
